The source of these data is patent US9145351B2, “Azole derivatives, methods for producing the same, intermediate thereof, agro-horticultural agents” (KUREHA CORPORATION, priority 2009, dated 2015).

SMILES strings stand for the structures. Like-named read-outs stand apart in the source and are kept apart here.

Common to all, as to format: cell-based
For one assay, the system named is Sclerotinia sclerotiorum. As to the kind of experiment: Plate medium fungicidal assay, Sclerotinia rot S.s (Experimental Example 5). The following applies: Sclerotinia sclerotiorum. The method in brief: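 A 4 mm mycelial plug was placed on PDA plates containing compound at 50 mg/L and 5 mg/L, added from DMSO solution. Colony diameters were compared with untreated plates, % mycelial growth inhibition was R=100(dc−dt)/dc, and scores fell into 5 grades.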

In another assay the test system is Pyricularia oryzae. As to the kind of experiment: microbe, parasite or virus in culture. The conditions noted are these: Pyricularia oryzae.
The next assay deals with Alternaria alternata. As to the kind of experiment: Plate medium fungicidal assay, Alternaria blotch A.m (Experimental Example 5). The conditions noted are these: Alternaria alternata. In short, it runs like this: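 Compound dissolved in DMSO and mixed into PDA plates at 50 mg/L and 5 mg/L; 4 mm mycelial plug inoculated. Colony diameter compared with untreated plates, % mycelial growth inhibition = 100(dc−dt)/dc, converted to one of 5 grades.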

In a further assay the test system is Curvularia sp. As to the kind of experiment: Plate medium assay, industrial material deteriorating microorganism, Curvularia (Experimental Example 5). The following applies: treatment at 50 mg/l, PDA plate medium, read-out: growth inhibition grade. On the procedure: (§1) In this Experimental Example, the fungicidal effects of the inventive compounds on various phytopathogenic fungi for plants and hazardous microorganism for industrial materials were examined by the methods described below. Each inventive compound was dissolved in 2 ml of dimethyl sulfoxide. 0.6 ml of this solution was added to 60 nil of a PDA medium (potato dextrose agar medium) at about 60 degrees C., which was mixed thoroughly in a 100-ml conical flask, and poured into a dish, where it was solidified, thereby obtaining a plate medium containing the inventive compound at 50 mg/L and 5 mg/L. On the other hand, a subject microorganism previously cultured on a plate medium was cut out using a cork borer whose diameter was 4 mm, and inoculated to the test compound-containing plate medium described above. […] The growth degree of the microorganism on the test compound-containing plate medium thus observed was compared with the growth degree of the microorganism in the untreated group, and % mycelial growth inhibition was calculated by the following equation. R=100(dc-dt)/dc wherein R=% mycelial extension inhibition, dc=flora diameter in untreated plate, dt=flora diameter in treated plate. The results obtained as described above were evaluated as one of the 5 grades according to the following criteria.

The next assay has as its system Fusarium graminearum. As to the kind of experiment: microbe, parasite or virus in culture. The conditions noted are these: Fusarium graminearum.
For another assay, the system named is Tyromyces palustris. As to the kind of experiment: Plate medium assay, wood denaturing microorganism Oouzuratake (Experimental Example 5). The following applies: treatment at 50 mg/l, PDA plate medium; read-out: growth inhibition grade. As for the experimental part: as §1
For another assay, the system named is Ustilago nuda. As to the kind of experiment: Plate medium fungicidal assay, barley loose smut U.n (Experimental Example 5). The conditions noted are these: Ustilago nuda. In short, it runs like this: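 Compounds in DMSO were mixed into molten PDA to give plates at 50 mg/L and 5 mg/L, then inoculated with a 4 mm mycelial plug. Colony diameter was compared with untreated plates as % inhibition = 100(dc−dt)/dc, scored on a 5-grade scale.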

Another assay relates to Giberella fujikuroi. As to the kind of experiment: Plate medium fungicidal assay, rice bakanae disease G.f (Experimental Example 5). The method in brief:
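Gibberella fujikuroi mycelial plugs (4 mm) placed on PDA plates containing compound at 50 mg/L and 5 mg/L, added from DMSO solution. Colony diameter compared with untreated plates as % inhibition = 100(dc−dt)/dc, then scored in 5 grades.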

The mark [1] stands for this setting: plate medium, 5 mg/L, read-out: growth inhibition grade S.s.
Setting [2] is: plate medium, 50 mg/L, read-out: growth inhibition grade S.s.
Setting [3] is: read-out: growth inhibition grade P.o.
Where [4] appears, read: plate medium, 5 mg/L, read-out: growth inhibition grade A.m.
[5] abbreviates: plate medium, 50 mg/L, read-out: growth inhibition grade A.m.
Setting [6] is: read-out: growth inhibition grade F.g.
[7] abbreviates: plate medium, 5 mg/L, read-out: growth inhibition grade U.n.
The mark [8] stands for this setting: plate medium, 50 mg/L, read-out: growth inhibition grade U.n.
The mark [9] stands for this setting: plate medium, 5 mg/L, read-out: growth inhibition grade G.f.
Where [10] appears, read: plate medium, 50 mg/L, read-out: growth inhibition grade G.f.
[11] abbreviates: read-out: Growth inhibition grade, P.o.
Where [12] appears, read: read-out: Growth inhibition grade, F.g.

Regarding `C[C@]1(CBr)CC[C@@H](Cc2ccccc2)[C@]1(O)Cn1cncn1` (racemic) [Compound I-602, (1RS,2SR,5SR)-2-bromomethyl-5-benzyl-2-methyl-1-(1H-1,2,4-triazol-1-ylmethyl)cyclopentanol], the inhibition at 5 µg/mL with Sclerotinia sclerotiorum (setting [1]) is above 80%; in the assay on Pyricularia oryzae (setting [3]), above 80%; in the assay with Alternaria alternata (setting [4]), 60 to 80%; in the assay with Fusarium graminearum (setting [6]) it was above 80%; in the assay with Ustilago nuda (setting [7]), 60 to 80%; in the assay with Giberella fujikuroi (setting [9]), above 80%. The inhibition at 50 µg/mL in the assay on Sclerotinia sclerotiorum (setting [2]) is above 80%; in the assay on Pyricularia oryzae (setting [3]), above 80%; in the assay on Alternaria alternata (setting [5]), above 80%; with Curvularia sp. it was 60 to 80%; with Fusarium graminearum (setting [6]) it was above 80%; in the assay on Tyromyces palustris it was 60 to 80%. The inhibition at 50 µg/mL in the assay on Ustilago nuda (setting [8]) and in the assay on Giberella fujikuroi (setting [10]) was above 80% throughout.

Turning to `O[C@]1(Cn2cncn2)[C@@H](Cc2ccc(Cl)cc2)CC[C@@H]1C(F)(F)F` (racemic) [Compound I-365, (1RS,2SR,5RS)-5-(4-chlorobenzyl)-2-trifluoromethyl-1-(1H-1,2,4-triazol-1-ylmethyl)cyclopentanol], the inhibition at 5 µg/mL was 20 to 40% in the assay with Sclerotinia sclerotiorum (setting [1]); below 20% in the assay with Pyricularia oryzae (setting [3]); 20 to 40% in the assay with Alternaria alternata (setting [4]); 20 to 40% in the assay with Fusarium graminearum (setting [6]); 20 to 40% with Ustilago nuda (setting [7]); below 20% in the assay with Giberella fujikuroi (setting [9]). The inhibition at 50 µg/mL with Sclerotinia sclerotiorum (setting [2]) is above 80%; in the assay on Pyricularia oryzae (setting [3]) it was above 80%; in the assay on Alternaria alternata (setting [5]), above 80%; in the assay with Curvularia sp., 60 to 80%; in the assay with Fusarium graminearum (setting [6]) it was above 80%; with Tyromyces palustris it was 60 to 80%. Moreover, the inhibition at 50 µg/mL in the assay on Ustilago nuda (setting [8]) and with Giberella fujikuroi (setting [10]) was above 80% throughout.

With `C[C@]1(CCl)CC[C@@H](Cc2ccccc2)[C@]1(O)Cn1cncn1` (racemic) [Compound I-73, (1RS,2SR,5SR)-2-chloromethyl-5-benzyl-2-methyl-1-(1H-1,2,4-triazol-1-ylmethyl)cyclopentanol], the inhibition at 5 µg/mL in the assay on Sclerotinia sclerotiorum (plate medium containing compound at 5 mg/L, read-out: Growth inhibition grade, S.s) was above 80%; with Sclerotinia sclerotiorum (setting [1]) it was above 80%; in the assay with Pyricularia oryzae (setting [11]), above 80%; with Pyricularia oryzae (setting [3]), above 80%; in the assay with Alternaria alternata (plate medium containing compound at 5 mg/L, read-out: Growth inhibition grade, A.m), above 80%; in the assay on Alternaria alternata (setting [4]), above 80%. Further, the inhibition at 5 µg/mL is above 80% in the assay with Fusarium graminearum (setting [12]); above 80% with Fusarium graminearum (setting [6]); above 80% with Ustilago nuda (plate medium containing compound at 5 mg/L, read-out: Growth inhibition grade, U.n); above 80% with Ustilago nuda (setting [7]); above 80% in the assay on Giberella fujikuroi (plate medium containing compound at 5 mg/L, read-out: Growth inhibition grade, G.f); above 80% with Giberella fujikuroi (setting [9]). Moreover, the inhibition at 50 µg/mL was above 80% in the assay on Sclerotinia sclerotiorum (plate medium containing compound at 50 mg/L, read-out: Growth inhibition grade, S.s); above 80% in the assay on Sclerotinia sclerotiorum (setting [2]); above 80% in the assay on Pyricularia oryzae (setting [11]); above 80% in the assay with Pyricularia oryzae (setting [3]); above 80% in the assay on Alternaria alternata (plate medium containing compound at 50 mg/L, read-out: Growth inhibition grade, A.m); above 80% in the assay on Alternaria alternata (setting [5]). Also, the inhibition at 50 µg/mL in the assay with Curvularia sp. was 60 to 80%; with Fusarium graminearum (setting [12]), above 80%; with Fusarium graminearum (setting [6]), above 80%; in the assay on Tyromyces palustris it was 60 to 80%; in the assay with Ustilago nuda (plate medium containing compound at 50 mg/L, read-out: Growth inhibition grade, U.n), above 80%; in the assay on Ustilago nuda (setting [8]), above 80%. Also, the inhibition at 50 µg/mL in the assay with Giberella fujikuroi (plate medium containing compound at 50 mg/L, read-out: Growth inhibition grade, G.f) is above 80%; with Giberella fujikuroi (setting [10]), above 80%.

`C[C@]1(CBr)CC[C@@H](Cc2ccc(F)cc2)[C@]1(O)Cn1cncn1` (racemic) [Compound I-601, (1RS,2SR,5SR)-2-bromomethyl-5-(4-fluorobenzyl)-2-methyl-1-(1H-1,2,4-triazol-1-ylmethyl)cyclopentanol]: the inhibition at 5 µg/mL with Sclerotinia sclerotiorum (setting [1]) is above 80%; in the assay on Pyricularia oryzae (setting [3]) it was above 80%; with Alternaria alternata (setting [4]), 60 to 80%; with Fusarium graminearum (setting [6]), above 80%; in the assay on Ustilago nuda (setting [7]) it was 40 to 60%; in the assay on Giberella fujikuroi (setting [9]) it was above 80%. Moreover, the inhibition at 50 µg/mL in the assay with Sclerotinia sclerotiorum (setting [2]) was above 80%; in the assay with Pyricularia oryzae (setting [3]), above 80%; in the assay on Alternaria alternata (setting [5]), above 80%; with Curvularia sp., 60 to 80%; in the assay with Fusarium graminearum (setting [6]) it was above 80%; in the assay on Tyromyces palustris, 60 to 80%. Also, the inhibition at 50 µg/mL in the assay on Ustilago nuda (setting [8]) and with Giberella fujikuroi (setting [10]) was above 80% each time.

On to `C[C@@]1(CCCl)CC[C@@H](Cc2ccc(Cl)cc2)[C@]1(O)Cn1cncn1` (racemic) [Compound I-104, (1RS,2SR,5SR)-5-(4-chlorobenzyl)-2-(2-chloroethyl)-2-methyl-1-(1H-1,2,4-triazol-1-ylmethyl)cyclopentanol], for which the inhibition at 5 µg/mL in the assay with Sclerotinia sclerotiorum (setting [1]), in the assay with Pyricularia oryzae (setting [3]), in the assay with Alternaria alternata (setting [4]), in the assay with Fusarium graminearum (setting [6]), with Ustilago nuda (setting [7]) and in the assay on Giberella fujikuroi (setting [9]) was above 80% each time. The inhibition at 50 µg/mL was above 80% with Sclerotinia sclerotiorum (setting [2]); above 80% with Pyricularia oryzae (setting [3]); above 80% with Alternaria alternata (setting [5]); 60 to 80% in the assay with Curvularia sp.; above 80% in the assay with Fusarium graminearum (setting [6]); 60 to 80% in the assay on Tyromyces palustris. For the same compound, the inhibition at 50 µg/mL with Ustilago nuda (setting [8]) and in the assay with Giberella fujikuroi (setting [10]) was above 80% each time.

In general, inhibition refers to the share of the control response that was lost under treatment.
